# Columns and labels:
# Aphidius rhopalosiphi = test: LR50; higher = less toxic; conditions: other; mortality
# Typhlodromus pyri = test: LR50; higher = less toxic; conditions: other; mortality
# Folsomia candida = conditions: chronic/long-term; duration: 28 days
# Oncorhynchus mykiss = conditions: chronic/long-term; duration: 21 days; growth
# Oryctolagus sp. = conditions: developmental; development
# Apis mellifera = conditions: acute, mortality
# Rattus norvegicus = conditions: for NOAEL: chronic
# Daphnia magna = conditions: chronic/long-term; duration: 21 days; reproduction
compound,measurement,setting,value
COC(=O)c1ccccc1S(=O)(=O)NC(=O)Nc1nc(C)nc(OC)n1 [Metsulfuron-methyl],LR50,Aphidius rhopalosiphi,> 8 g/ha
same,LR50,Typhlodromus pyri,> 8 g/ha
same,NOEC,Folsomia candida,≥ 250 mg/kg
same,NOEC,Oncorhynchus mykiss,68 mg/L
same,NOAEL,Oryctolagus sp.,25 mg/kg-day
same,LD50,Apis mellifera; dermal,> 50 µg/piece
same,LD50,"Apis mellifera; oral, unspecified",> 44.3 µg/piece
same,LD50,"Rattus norvegicus; acute, oral, mortality",> 5000 mg/kg-day
same,NOAEL,Rattus norvegicus,25 mg/kg-day
same,NOAEL,"Rattus norvegicus; duration: 2 years, body weight",22.4 mg/kg-day
same,LD50,"Anas platyrhynchos; acute, oral, unspecified",> 2510 mg/kg-day
same,NOAEL,Anas platyrhynchos; reproductive,100 mg/kg-day
same,LC50,"Anas platyrhynchos; short-term, oral, feed",> 1280 mg/kg-day
same,NOEC,Daphnia magna,3.13 mg/L
same,LC50,"Tagia sp.; acute, duration: 14 days, mortality",> 1000 mg/kg
same,NOEC,"Tagia sp.; chronic/long-term, duration: 56 days",0.83 mg/kg
